Calls of active or inactive are those of the source. The rule behind the calls is not given here.
Test system: rodent carcinogenicity bioassays, tumor incidence
Experiment: CCRIS carcinogenicity studies
How it was run: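 Archive of carcinogenicity, mutagenicity, tumor promotion and tumor inhibition results drawn from journals, NCI reports and other sources, expert-reviewed; covers 1985-2011 and is no longer updated.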

`CN(C)N=O` was tested, and the carcinogen call (Species: DUCK, Route: ORAL, Tumor Site: Type of Lesion: LIVER) was “active; positive”, the carcinogen call (Species: FISH, Route: ORAL, Tumor Site: Type of Lesion: LIVER) was “active; positive” and the carcinogen call (Species: GUINEA PIG, Route: ORAL, Tumor Site: Type of Lesion: LIVER) was “active; positive”. The carcinogen call (Species: HAMSTER, Route: ORAL, Tumor Site: Type of Lesion: LIVER) was “active; positive”, the carcinogen call (Species: HAMSTER, Route: SUBCUTANEOUS, Tumor Site: Type of Lesion: LIVER, KIDNEY, NASAL CAVITY, Tumor Site: Type of Lesion: LIVER, KIDNEY, NASAL CAVITY) was “active; positive” and the carcinogen call (Species: HAMSTER, Strain/Sex: SYRIAN/MALE, Route: INTRATRACHEAL, Dose: 0, 0.05, 0.1 MG IN PHOSPHATE BUFFER 1/WK FOR 15 WK (TOTAL DOSE: 0; 0.75; 0.5 MG) (STUDY DURATION: LIFESPAN), Dose: 0, 0.05, 0.1 MG IN PHOSPHATE BUFFER 1/WK FOR 15 WK (TOTAL DOSE: 0; 0.75; 0.5 MG) (STUDY DURATION: LIFESPAN), Tumor Site: Type of Lesion: LIVER: HEMANGIOSARCOMA, TUMOR) was “active; positive”. The carcinogen call (Species: HAMSTER, Strain/Sex: SYRIAN/MALE, Route: INTRATRACHEAL, Dose: 0, 0.5 MG IN PHOSPHATE BUFFER ONCE (STUDY DURATION: LIFESPAN)) was “inactive; negative”, the carcinogen call (Species: MOUSE, Route: INHALATION, Tumor Site: Type of Lesion: LIVER, LUNG, KIDNEY, Tumor Site: Type of Lesion: LIVER, LUNG, KIDNEY) was “active; positive” and the carcinogen call (Species: MOUSE, Route: INTRAPERITONEAL, Tumor Site: Type of Lesion: LIVER, LUNG, KIDNEY, Tumor Site: Type of Lesion: LIVER, LUNG, KIDNEY) was “active; positive”. For the same compound, the carcinogen call (Species: MOUSE, Route: ORAL, Tumor Site: Type of Lesion: LIVER, LUNG, KIDNEY, Tumor Site: Type of Lesion: LIVER, LUNG, KIDNEY) was “active; positive”, the carcinogen call (Species: MOUSE, Route: SUBCUTANEOUS, Tumor Site: Type of Lesion: LIVER, LUNG) was “active; positive” and the carcinogen call (Species: MOUSE, Strain/Sex: C3H/FEMALE, Route: TRANSPLACENTAL, Dose: 0, 0.1 MMOL IN 0.9% STERILE SALINE (7.4 MG/KG) ON DAY 16 OF GESTATION (STUDY DURATION: LIFETIME), Tumor Site: Type of Lesion: LIVER: CARCINOMA) was “active; positive”. The carcinogen call (Species: MOUSE, Strain/Sex: C3H/FEMALE, Route: TRANSPLACENTAL, Dose: 0, 0.1 MMOL IN 0.9% STERILE SALINE (7.4 MG/KG) ON DAY 19 OF GESTATION (STUDY DURATION: LIFETIME), Tumor Site: Type of Lesion: LIVER: CARCINOMA) was “active; positive”, the carcinogen call (Species: MOUSE, Strain/Sex: C3H/MALE, Route: TRANSPLACENTAL, Dose: 0, 0.1 MMOL IN 0.9% STERILE SALINE (7.4 MG/KG) ON DAY 16 OF GESTATION (STUDY DURATION: LIFETIME)) was “inactive; negative” and the carcinogen call (Species: MOUSE, Strain/Sex: C3H/MALE, Route: TRANSPLACENTAL, Dose: 0, 0.1 MMOL IN 0.9% STERILE SALINE (7.4 MG/KG) ON DAY 19 OF GESTATION (STUDY DURATION: LIFETIME), Tumor Site: Type of Lesion: LIVER: CARCINOMA) was “active; positive”. The carcinogen call (Species: MOUSE, Strain/Sex: STRAIN-A/FEMALE, Route: INTRAPERITONEAL, Dose: 0, 5, 20 UMOL TOTAL DOSE ADMINISTERED IN SUBDOSES 3/WK FOR 7 WK (STUDY DURATION: 37 WK), Dose: 0, 5, 20 UMOL TOTAL DOSE ADMINISTERED IN SUBDOSES 3/WK FOR 7 WK (STUDY DURATION: 37 WK), Tumor Site: Type of Lesion: LUNG: TUMOR) was “active; positive”, the carcinogen call (Species: RABBIT, Route: ORAL, Tumor Site: Type of Lesion: LIVER) was “active; positive” and the carcinogen call (Species: RAT, Route: INHALATION, Tumor Site: Type of Lesion: NASAL CAVITY) was “active; positive”. For the same compound, the carcinogen call (Species: RAT, Route: ORAL, Tumor Site: Type of Lesion: LIVER, KIDNEY) was “active; positive”, the carcinogen call (Species: RAT, Route: SUBCUTANEOUS, INTRAPERITONEAL, Tumor Site: Type of Lesion: KIDNEY) was “active; positive” and the carcinogen call (Species: RAT, Strain/Sex: F344/FEMALE, Route: INTRAVESICULAR, Dose: 0, 2 MG IN 0.2 ML ETHANOL: DEIONIZED WATER (1:3) 2/WK FOR 30 WK (TOTAL DOSE: 1.6 MMOL) (STUDY DURATION: LIFESPAN), Tumor Site: Type of Lesion: KIDNEY: MESENCHYMAL NEOPLASM, LUNG: TUMOR) was “active; positive”. The carcinogen call (Species: RAT, Strain/Sex: SPRAGUE-DAWLEY/FEMALE, Route: INHALATION, Dose: 0, 0.04, 0.2, 1 PPM 4-5 HR/D 4 D/WK FOR 207 D (ESTIMATED DAILY UPTAKE OF 0; 10; 40; 180 UG/KG) (STUDY DURATION: 207 D), Dose: 0, 0.04, 0.2, 1 PPM 4-5 HR/D 4 D/WK FOR 207 D (ESTIMATED DAILY UPTAKE OF 0; 10; 40; 180 UG/KG) (STUDY DURATION: 207 D), Tumor Site: Type of Lesion: NASAL CAVITY: TUMOR) was “active; positive”, the carcinogen call (Species: RAT, Strain/Sex: WISTAR/FEMALE, Route: INTRAPERITONEAL, Dose: 0, 0.04% IN 0.1-0.2 ML PHYSIOLOGICAL SALINE 1/D FOR D 1-5 OF LIFE (TOTAL DOSE 0.2 MG) (STUDY DURATION: LIFESPAN OR 1 YR), Tumor Site: Type of Lesion: LIVER: HEPATOCELLULAR CARCINOMA, HEPATOMA, CHOLANGIOMA, ANGIOMA, KIDNEY: MESENCHYMAL TUMOR, EPITHELIAL TUMOR) was “active; positive” and the carcinogen call (Species: RAT, Strain/Sex: WISTAR/FEMALE, Route: INTRAPERITONEAL, Dose: 0, 0.04% IN 0.1-0.2 ML PHYSIOLOGICAL SALINE 1/D FOR D 1-10 OF LIFE (TOTAL DOSE 0.4 MG) (STUDY DURATION: LIFESPAN OR 1 YR, Tumor Site: Type of Lesion: LIVER: HEPATOCELLULAR CARCINOMA, HEPATOMA, CHOLANGIOMA, ANGIOMA, KIDNEY: MESENCHYMAL TUMOR, EPITHELIAL TUMOR) was “active; positive”. For the same compound, the carcinogen call (Species: RAT, Strain/Sex: WISTAR/FEMALE, Route: INTRAPERITONEAL, Dose: 0, 0.04% IN 0.1-0.2 ML PHYSIOLOGICAL SALINE 1/D FOR D 1-20 OF LIFE (TOTAL DOSE 0.5 MG) (STUDY DURATION: LIFESPAN OR 1 YR, Tumor Site: Type of Lesion: LIVER: HEPATOCELLULAR CARCINOMA, HEPATOMA, ANGIOMA, KIDNEY: MESENCHYMAL TUMOR) was “active; positive”, the carcinogen call (Species: RAT, Strain/Sex: WISTAR/FEMALE, Route: ORAL, Dose: 0, 0.033, 0.066, 0.132, 0.264, 0.528, 1.056, 1.584, 2.112, 2.640, 3.168, 4.224, 5.280, 6.336, 8.448, 16.896 PPM IN DRINK, Dose: 0, 0.033, 0.066, 0.132, 0.264, 0.528, 1.056, 1.584, 2.112, 2.640, 3.168, 4.224, 5.280, 6.336, 8.448, 16.896 PPM IN DRINK, Tumor Site: Type of Lesion: LIVER: HEPATOCELLULAR CARCINOMA, HEMANGIOMA, BILE DUCT: TUMOR) was “active; positive” and the carcinogen call (Species: RAT, Strain/Sex: WISTAR/MALE, Route: INTRAPERITONEAL, Dose: 0, 0.04% IN 0.1-0.2 ML PHYSIOLOGICAL SALINE 1/D FOR D 1-5 OF LIFE (TOTAL DOSE 0.2 MG) (STUDY DURATION: LIFESPAN OR 1 YR), Tumor Site: Type of Lesion: LIVER: HEPATOCELLULAR CARCINOMA, HEPATOMA, CHOLANGIOMA, KIDNEY: MESENCHYMAL TUMOR, EPITHELIAL TUMOR) was “active; positive”. For the same compound, the carcinogen call (Species: RAT, Strain/Sex: WISTAR/MALE, Route: INTRAPERITONEAL, Dose: 0, 0.04% IN 0.1-0.2 ML PHYSIOLOGICAL SALINE 1/D FOR D 1-10 OF LIFE (TOTAL DOSE 0.4 MG) (STUDY DURATION: LIFESPAN OR 1 YR, Tumor Site: Type of Lesion: LIVER: HEPATOCELLULAR CARCINOMA, HEPATOMA, CHOLANGIOMA, ANGIOMA, KIDNEY: MESENCHYMAL TUMOR, EPITHELIAL TUMOR) was “active; positive”, the carcinogen call (Species: RAT, Strain/Sex: WISTAR/MALE, Route: INTRAPERITONEAL, Dose: 0, 0.04% IN 0.1-0.2 ML PHYSIOLOGICAL SALINE 1/D FOR D 1-20 OF LIFE (TOTAL DOSE 0.5 MG) (STUDY DURATION: LIFESPAN OR 1 YR, Tumor Site: Type of Lesion: LIVER: HEPATOCELLULAR CARCINOMA, HEPATOMA, ANGIOMA, KIDNEY: MESENCHYMAL TUMOR) was “active; positive” and the carcinogen call (Species: RAT, Strain/Sex: WISTAR/MALE, Route: ORAL, Dose: 0, 0.033, 0.066, 0.132, 0.264, 0.528, 1.056, 1.584, 2.112, 2.640, 3.168, 4.224, 5.280, 6.336, 8.448, 16.896 PPM IN DRINK, Dose: 0, 0.033, 0.066, 0.132, 0.264, 0.528, 1.056, 1.584, 2.112, 2.640, 3.168, 4.224, 5.280, 6.336, 8.448, 16.896 PPM IN DRINK, Tumor Site: Type of Lesion: LIVER: HEPATOCELLULAR CARCINOMA, HEMANGIOMA, BILE DUCT: TUMOR) was “active; positive”.

Source: PubChem BioAssay AID1259411 (Chemical Carcinogenesis Research Information System (CCRIS), 2018)
